Counter-ions that a name gives are not always drawn.
Assay: in vitro
Conditions: rat, gh3-tre-luc cells

Structure (SMILES)	CC50 at 24 h (AC50 (uM) modified / 1000)	further results
O=c1c2ccccc2c(=O)c2c1cc(Cl)c1[nH]c3c([nH]c12)c(Cl)cc1c(=O)c2ccccc2c(=O)c13 [D&C Blue No. 9]		CC50 at 24 h (AC50 (uM) modified / 1000, Tox21_110001=Tox21_302231, viability, 1 nM T3 present, 24 h): > 90 µM
Nc1cc(Cl)c(O)c(Cl)c1 [4-Amino-2,6-dichlorophenol]	83.2 µM	
CN1CCN=C(c2ccccc2)c2cc(Cl)ccc21 [Medazepam]	> 50 µM	
CC(=O)N[C@@H](CC(C)C)C(=O)O [Acetyl-L-leucine]	> 50 µM	
COC(=O)[C@]1(C)CCC[C@@]2(C)[C@H]1CC=C1C=C(C(C)C)CC[C@@H]12 [Methyl abietate]	42.6 µM	
COc1ccc([C@@H]2CC(=O)c3c(O)cc(O[C@@H]4O[C@H](CO[C@@H]5O[C@@H](C)[C@H](O)[C@@H](O)[C@H]5O)[C@@H](O)[C@H](O)[C@H]4O)cc3O2)cc1O [Hesperidin]	> 20 µM	
N#C/C(N)=C(/N)C#N [Diaminomaleonitrile]		CC50 at 24 h (AC50 (uM) modified / 1000, Tox21_110001=Tox21_200991, viability, 1 nM T3 present, 24 h): > 90 µM
Nc1ccncc1N [3,4-Diaminopyridine]	> 50 µM	
CC(C)/N=c1\cc2n(-c3ccc(Cl)cc3)c3ccccc3nc-2cc1Nc1ccc(Cl)cc1 [Clofazimine]	5.75 µM	
CC[C@H]1OC(=O)[C@H](C)[C@@H](O[C@H]2C[C@@](C)(OC)[C@@H](O)[C@H](C)O2)[C@H](C)[C@@H](O[C@@H]2O[C@H](C)C[C@H](N(C)C)[C@H]2O)[C@](C)(O)C[C@@H](C)[C@@H]2N[C@@H](COCCOC)O[C@H]([C@H]2C)[C@]1(C)O [Dirithromycin]	> 50 µM	
NC(=O)N(O)[C@@H]1COc2cc(OCc3ccccc3)ccc21 [SB202235]	> 90 µM	
C[n+]1ccccc1/C=N/O [Pralidoxime chloride]	> 20 µM	
O=S(=O)(O)c1ccc(Nc2nc(Nc3ccc(/C=C/c4ccc(Nc5nc(Nc6ccc(S(=O)(=O)O)cc6)nc(N(CCO)CCO)n5)cc4S(=O)(=O)O)c(S(=O)(=O)O)c3)nc(N(CCO)CCO)n2)cc1 [C.I. Fluorescent Brightener 220]	> 60 µM	
CCCCCC[C@@H](O)C/C=C\CCCCCCCC(=O)OC [Methyl ricinoleate]	> 90 µM	
c1ccc(-c2ccc(C(c3ccccc3)n3ccnc3)cc2)cc1 (stereo not drawn) [Bifonazole]	45.2 µM	
C=C(C)CCCC(C)CCO (stereo not drawn) [Rhodinol]	> 90 µM	
OCC1CC2CC1C1CCC(CO)C21 (stereo not drawn) [Tricyclodecanedimethanol]	> 90 µM	
CC1(C)CCC(C)(C)c2cc(NC(=O)c3ccc(C(=O)O)cc3)ccc21 [Tamibarotene]	15.4 µM	
COc1ncnc(NS(=O)(=O)c2ccc(N)cc2)c1OC [Sulfadoxine]	> 50 µM	
COCCOCCOC [Diethylene glycol dimethyl ether]	> 90 µM	
NNc1nc(-c2ccccc2)cs1 [2-Hydrazino-4-phenylthiazole]	47 µM	
CCCCCCCCCCCCC [Tridecane]	> 90 µM	
Cc1ccc(N)nc1 [5-Methylpyridin-2-amine]	> 90 µM	
CCOCn1c(-c2ccc(Cl)cc2)c(C#N)c(Br)c1C(F)(F)F [Chlorfenapyr]	2.15 µM	
CCC(N)Cc1c[nH]c2ccccc12 (stereo not drawn) [Etryptamine]		CC50 at 24 h (AC50 (uM) modified / 1000, Tox21_110001=Tox21_112618, viability, 1 nM T3 present, 24 h): > 50 µM
CNC(C)Cc1ccccc1OC (stereo not drawn) [Methoxyphenamine]		CC50 at 24 h (AC50 (uM) modified / 1000, Tox21_110001=Tox21_113045, viability, 1 nM T3 present, 24 h): > 50 µM

Structure (SMILES)	CC50 at 24 h (AC50 (uM) modified / 1000)	further results
O=C1OC(=O)c2ccccc21 [Phthalic anhydride]	> 90 µM	
COc1cccc(C(=O)CCN[C@@H](C)[C@H](O)c2ccccc2)c1 [l-Oxyfedrine hydrochloride]	13.4 µM	
COCCCC/C(=N\OCCN)c1ccc(C(F)(F)F)cc1 [Fluvoxamine]	15 µM	
CCC(C)C1N=C(C)C(C)S1 (stereo not drawn) [2-(2-Butyl)-4,5-dimethyl-3-thiazoline]	> 90 µM	
CCCCCCCCCC=O [Decanal]	> 90 µM	
O=C(O)COc1ccccc1 [Phenoxyacetic acid]		CC50 at 24 h (AC50 (uM) modified / 1000, Tox21_110001=Tox21_111092, viability, 1 nM T3 present, 24 h): > 50 µM; CC50 at 24 h (AC50 (uM) modified / 1000, Tox21_110001=Tox21_201854, viability, 1 nM T3 present, 24 h): > 90 µM
COC(=O)c1ccc(C(=O)O)cc1 [1,4-Benzenedicarboxylic acid, monomethyl ester]	> 90 µM	
C[C@]12CC[C@@H]3c4ccc(O)cc4CC[C@H]3[C@@H]1CC[C@@H]2OP(=O)(O)O [Estradiol phosphate]	> 50 µM	
CCOc1ccc(NC(=O)CC(C)O)cc1 (stereo not drawn) [3-Hydroxy-4-butyrophenetidide]	> 90 µM	
COC(=O)c1cc(C(=O)OC)cc(S(=O)(=O)O)c1 [Sodium 3,5-bis(methoxycarbonyl)benzenesulfonate]	> 90 µM	
C#C[C@]1(O)CC[C@H]2[C@@H]3[C@H](C)CC4=C(CCC(=O)C4)[C@H]3CC[C@@]21C [Tibolone]	51.8 µM	
Cc1ccc2c(Br)cc(Br)c(O)c2n1 [Broquinaldol]	23 µM	
COc1ccc(OC)c(NC(=O)CC(C)=O)c1 [N-(2,5-Dimethoxyphenyl)-3-oxobutanamide]	> 90 µM	
NCCO/C=C/[C@H](N)C(=O)O [Aviglycine hydrochloride]	> 50 µM	
c1ccc([C@H]2CN3CCSC3=N2)cc1 [Levamisole hydrochloride]	> 50 µM	
O=C(NCCO[N+](=O)[O-])c1cccnc1 [Nicorandil]	> 50 µM	
CC(C)(O)C#N [2-Hydroxy-2-methylpropanenitrile]		CC50 at 24 h (AC50 (uM) modified / 1000, Tox21_110001=Tox21_201490, viability, 1 nM T3 present, 24 h): > 100 µM; CC50 at 24 h (AC50 (uM) modified / 1000, Tox21_110001=Tox21_303256, viability, 1 nM T3 present, 24 h): > 90 µM
C=C1CC[C@H]2C[C@@H]1C2(C)C [beta-Pinene]	> 90 µM	
Nc1ccccc1C(=O)O [Anthranilic acid]		CC50 at 24 h (AC50 (uM) modified / 1000, Tox21_110001=Tox21_111095, viability, 1 nM T3 present, 24 h): > 50 µM; CC50 at 24 h (AC50 (uM) modified / 1000, Tox21_110001=Tox21_200703, viability, 1 nM T3 present, 24 h): > 90 µM
C=CCCCCCCCCC(=O)OCCCC [Butyl undec-10-enoate]	> 90 µM	
CC#Cc1cc(C)nc(Nc2ccccc2)n1 [Mepanipyrim]	> 90 µM	
CNC(C)CC1CCCCC1 (racemic) [(+/-) Propylhexedrine]		CC50 at 24 h (AC50 (uM) modified / 1000, Tox21_110001=Tox21_113077, viability, 1 nM T3 present, 24 h): > 50 µM
Cn1sc(Cl)cc1=O [5-Chloro-2-methyl-3(2H)-isothiazolone]	65.6 µM	
O=C(O)[C@@H](O)[C@H](O)[C@H](O)[C@@H](O)C(=O)O [Mucic acid]	> 50 µM	
CC(C)(CO)[C@@H](O)C(=O)NCCCC(=O)O [Calcium hopantenate]	> 50 µM	
NCCCCCC(=O)O [6-Aminocaproic acid]	> 20 µM	

Structure (SMILES)	CC50 at 24 h (AC50 (uM) modified / 1000)	further results
CC(C)OC(=O)c1cc2c(OCC(O)CNC(C)(C)C)cccc2[nH]1 (stereo not drawn) [SDZ 21009]	36.9 µM	
N#Cc1sc2c(=O)c3ccccc3c(=O)c=2sc1C#N [Dithianon]	29.4 µM	
C=CCOCC(CO)(CO)CO [Pentaerythritol allyl ether]	> 60 µM	
CCS(=O)(=O)CCn1c([N+](=O)[O-])cnc1C [Tinidazole]	> 20 µM	
O=C1CC(=O)NC(=O)N1 [Barbituric acid]	> 90 µM	
CC(CN1c2ccccc2Sc2cccnc21)N(C)C (stereo not drawn) [Isothipendyl hydrochloride]	28 µM	
CC/C=C\CCCCCO [(6Z)-Non-6-en-1-ol]	> 90 µM	
CC1(C)C2CC[C@]3(C)[C@H](C(=O)C=C4[C@@H]5C[C@@](C)(C(=O)O)CC[C@]5(C)CC[C@]43C)[C@@]2(C)CC[C@@H]1O[C@H]1O[C@H](C(=O)O)[C@@H](O)[C@H](O)[C@H]1O[C@@H]1O[C@H](C(=O)O)[C@@H](O)[C@H](O)[C@H]1O (stereo partly drawn) [Glycyrrhizic acid, monosodium salt]	> 50 µM	
CC(O)CO (stereo not drawn) [1,2-Propylene glycol]	> 90 µM	
CCCCCCCCOc1ccccc1C(=O)Nc1ccc(C(=O)OCC[N+](C)(CC)CC)cc1 [Otilonium bromide]	22.8 µM	
c1ccc2c(c1)ccc1cc3c(ccc4ccccc43)cc12 [Dibenz(a,h)anthracene]	> 50 µM	
COc1cc2ncnc(Nc3ccc(F)c(Cl)c3)c2cc1OCCCN1CCOCC1 [Gefitinib]	8.92 µM	
IC(I)=C(I)I [Tetraiodoethene]	8.53 µM	
CCCCCc1ccco1 [2-Pentylfuran]	> 60 µM	
O=S(=O)(O)CCO [Sodium 2-hydroxyethanesulfonate]	> 90 µM	
COc1ccc(CCN(C)CCCC(C#N)(c2cc(OC)c(OC)c(OC)c2)C(C)C)cc1OC (stereo not drawn) [Gallopamil hydrochloride]	21 µM	
c1ccc(CCCc2ccccn2)cc1 [2-(3-Phenylpropyl)pyridine]	> 90 µM	
Cc1ccc2c(c1)c1c3n2CCNC3CCC1 (stereo not drawn) [Pirlindole mesylate]	9.12 µM	
C/C=C(\C)C(=O)OCc1ccccc1 [Benzyl tiglate]	> 90 µM	
CC(=O)C1=C(C)[C@@H]2C[C@@]3(C1)[C@H](C)CC[C@H]3C2(C)C [Acetyl cedrene]	56.9 µM	
Cc1ccccc1OCC1CO1 (stereo not drawn) [o-Cresyl glycidyl ether]	> 90 µM	
N[C@H](C(=O)O)c1ccc(O)cc1 [Oxfenicine]	> 50 µM	
CC(N)CN (stereo not drawn) [1,2-Diaminopropane]	> 100 µM	
NC(=O)c1ccccc1O [Salicylamide]	> 90 µM	
CCOC(=O)CC(=O)c1cc(F)c(Cl)nc1Cl [Ethyl 2,6-dichloro-5-fluoro-?-oxo-3-pyridinepropionate]	> 90 µM	
NC(=O)Nc1ccccc1 [1-Phenylurea]	> 90 µM	
